Marks after values point to notes of the source that are not given here.
Legend:
Assay type in all cases: physicochemical
[1] = Solubility of Compound (1) in physiological pH range; thermodynamic solubility
Procedure: Doses of Compound (1) up to 400 to 600 mg per dose may be required to be delivered to obtain exposures necessary for sufficient efficacy in vivo. Based on thermodynamic solubility of Compound (1), solubility of 0.005-0.01 mg/ml is estimated for Compound (1) sodium salt.

[2] = Powder dissolution / solubility of Compound (1) sodium salt in water at different concentrations; conditions: for % dissolved / CMC value: water; for CMC value: estimated
Procedure: Based on thermodynamic solubility of Compound (1), solubility of 0.005-0.01 mg/ml is estimated for Compound (1) sodium salt. […] This unique behavior of high solubility at high drug concentrations is most likely attributable to tendency of the drug substance to self-micellize. A CMC value of 41.4 mM (corresponding to 28 mg/mL) is estimated.

[3] = Powder dissolution of triturated mixtures in capsules in 500 mL pH 6.8 buffer; conditions: capsule
From the text: One class of solubilizer excipients, basifiers, act by increasing the microenvironment pH and thereby increasing the local solubility of the drug (for a drug containing an acid moiety). Another class of solubilizer excipients, surfactants, also act by increasing the local solubility of the drug. […] For example, an enhancement in dissolution was obtained when surfactants, for example, sodium lauryl sulfate or Vitamin E TPGS, were used in combination with basifiers, for example, L-arginine, meglumine or L-lysine. […] For example, only 1% drug release was obtained when Compound (1) sodium salt crystalline was present. The % drug release was 54% at 60 minutes in the presence of 100 mg Arginine alone and 59% in the presence of Sodium lauryl sulfate alone (Table 2). However, in presence of 100 mg of Arginine along with 100 mg of Sodium lauryl sulfate, the % drug release increased to 93% at 60 minutes (Table 3) indicating enhancement in dissolution when both surfactant and basifier were used in combination.

## Cn1c(C2(NC(=O)c3ccc4c(C5CCCC5)c(-c5ncc(Br)cn5)n(C)c4c3)CCC2)nc2ccc(/C=C/C(=O)[O-])cc21.[Na+] [Compound (1) sodium salt]
[1]
  solubility estimated based on thermodynamic solubility of Compound (1): 5 to 10 µg/mL
[2]; concentrations exceeding the CMC value
  dissolution in water: dissolves completely
[2]; conc 0.1 mg/ml
  % dissolved: 13.4%
[2]; conc 0.3 mg/ml
  % dissolved: 15.0%
[2]; conc 1.0 mg/ml
  % dissolved: 15.4%
[2]; conc 3.0 mg/ml
  % dissolved: 46.6%
[2]; conc 10.0 mg/ml
  % dissolved: 90.0%
[2]; conc 30.0 mg/ml
  % dissolved: 100.0%
[2]; conc 100.0 mg/ml
  % dissolved: 100.0%
[2]; conc 200.0 mg/ml
  % dissolved: 100.0%
[2]; concentrations ≦1 mg/mL
  % dissolved: 15%
[2]
  CMC value: 41.4 mM
[2]; corresponding to the mM value
  CMC value: 28 mg/mL
[3]; 200 mg drug + Arginine 100 mg, 90 (infinity), n = 4
  % Release, average (range): 54 (40-58) %
[3]; 200 mg drug + Arginine 100 mg, 15 min, n = 4
  % Release, average (range): 43 (27-53)* %
[3]; 200 mg drug + Arginine 100 mg, 30 min, n = 4
  % Release, average (range): 54 (39-62) %
[3]; 200 mg drug + Arginine 100 mg, 60 min, n = 4, listed as Compound (1) Na Salt
  % Release, average (range): 54 (38-60) %
[3]; 200 mg drug + Arginine 100 mg, 60 min, n = 4, listed as Compound (1) sodium salt crystalline
  % Release, average (range): 54%
[3]; 200 mg drug + Arginine + SDS (40 mg + 20 mg), 15 min
  % Release, Average of n = 2 (range): 74 (70-78) %
[3]; 200 mg drug + Arginine + SDS (40 mg + 20 mg), 30 min
  % Release, Average of n = 2 (range): 77 (74-80) %
[3]; 200 mg drug + Arginine + SDS (40 mg + 20 mg), 60 min
  % Release, Average of n = 2 (range): 76 (74-78) %
[3]; 200 mg drug + Arginine + SDS (40 mg + 20 mg), 90 min
  % Release, Average of n = 2 (range): 72 (70-74) %
[3]; 200 mg drug + Arginine + SDS (100 mg + 100 mg), 15 min
  % Release, Average of n = 2 (range): 92 (91-93) %
[3]; 200 mg drug + Arginine + SDS (100 mg + 100 mg), 30 min
  % Release, Average of n = 2 (range): 93 (93-94) %
[3]; 200 mg drug + Arginine + SDS (100 mg + 100 mg), 60 min, listed as Compound (1) Na Salt
  % Release, Average of n = 2 (range): 93 (93-93) %
[3]; 200 mg drug + Arginine + SDS (100 mg + 100 mg), 60 min, listed as Compound (1) sodium salt crystalline
  % Release, Average of n = 2 (range): 93%
[3]; 200 mg drug + Arginine + SDS (100 mg + 100 mg), 90 min
  % Release, Average of n = 2 (range): 91 (89-92) %
[3]; 200 mg drug + Arginine + VitE TPGS (40 mg + 20 mg), 15 min
  % Release, Average of n = 2 (range): 62 (61-63) %
[3]; 200 mg drug + Arginine + VitE TPGS (40 mg + 20 mg), 30 min
  % Release, Average of n = 2 (range): 64 (62-67) %
[3]; 200 mg drug + Arginine + VitE TPGS (40 mg + 20 mg), 60 min
  % Release, Average of n = 2 (range): 65 (63-68) %
[3]; 200 mg drug + Arginine + VitE TPGS (40 mg + 20 mg), 90 min
  % Release, Average of n = 2 (range): 63 (60-66) %
[3]; 200 mg drug + Arginine + VitE TPGS (100 mg + 100 mg), 15 min
  % Release, Average of n = 2 (range): 76 (74-78) %
[3]; 200 mg drug + Arginine + VitE TPGS (100 mg + 100 mg), 30 min
  % Release, Average of n = 2 (range): 77 (76-78) %
[3]; 200 mg drug + Arginine + VitE TPGS (100 mg + 100 mg), 60 min
  % Release, Average of n = 2 (range): 78 (78-78) %
[3]; 200 mg drug + Arginine + VitE TPGS (100 mg + 100 mg), 90 min
  % Release, Average of n = 2 (range): 76 (75-76) %
[3]; 200 mg drug + Lysine 100 mg, 90 (infinity), n = 4
  % Release, average (range): 44 (33-46) %
[3]; 200 mg drug + Lysine 100 mg, 15 min, n = 4
  % Release, average (range): 18 (9-27) %
[3]; 200 mg drug + Lysine 100 mg, 60 min, n = 4
  % Release, average (range): 47 (33-54) %
[3]; 200 mg drug + Lysine + SDS (40 mg + 20 mg), 15 min
  % Release, Average of n = 2 (range): 75 (74-77) %
[3]; 200 mg drug + Lysine + SDS (40 mg + 20 mg), 30 min
  % Release, Average of n = 2 (range): 77 (76-78) %
[3]; 200 mg drug + Lysine + SDS (40 mg + 20 mg), 60 min
  % Release, Average of n = 2 (range): 75 (74-75) %
[3]; 200 mg drug + Lysine + SDS (40 mg + 20 mg), 90 min
  % Release, Average of n = 2 (range): 72 (70-74) %
[3]; 200 mg drug + Lysine + SDS (100 mg + 100 mg), 15 min
  % Release, Average of n = 2 (range): 40 (37-42) %
[3]; 200 mg drug + Lysine + SDS (100 mg + 100 mg), 30 min
  % Release, Average of n = 2 (range): 74 (67-82) %
[3]; 200 mg drug + Lysine + SDS (100 mg + 100 mg), 60 min
  % Release, Average of n = 2 (range): 85 (85-86) %
[3]; 200 mg drug + Lysine + SDS (100 mg + 100 mg), 90 min
  % Release, Average of n = 2 (range): 85 (84-85) %
[3]; 200 mg drug + Lysine + VitE TPGS (40 mg + 20 mg), 15 min
  % Release, Average of n = 2 (range): 37 (33-41) %
[3]; 200 mg drug + Lysine + VitE TPGS (40 mg + 20 mg), 30 min
  % Release, Average of n = 2 (range): 69 (69-70) %
[3]; 200 mg drug + Lysine + VitE TPGS (40 mg + 20 mg), 60 min
  % Release, Average of n = 2 (range): 71 (70-72) %

Reference: patent US8598183B2, “Solid state forms of a potent HCV inhibitor” (Boehringer Ingelheim International GmbH, priority 2010, dated 2013)
